Measurements published in publication PMC6471591, “Preparation of Sesquiterpene Lactone Derivatives: Cytotoxic Activity and Selectivity of Action” (Molecules, 2019).
Like-named read-outs stand apart in the source and are kept apart here.

Tests used:
[1] = Cytotoxicity on primary cell culture (propidium iodide, flow cytometry); type: cell-based
Procedure: The cytotoxicity of the sesquiterpene lactones and its derivatives was evaluated using mouse splenocytes. […] Cumanin derivatives (4–11) have shown CC50 values and selectivity indexes higher than natural compound 1. […] The incorporation of two triazole groups in cumanin (1) reduced cytotoxicity on normal cells and improved selectivity against tumor cell lines.
In a 96-well plate, spleen cells from Balb/c mouse (1.5 × 10^5) were incubated with different drug dilutions (200, 100, 50, 10, and 5 μg/mL) in RPMI medium containing 10% fetal calf serum. After 48 h of incubation at 37 °C (5% CO2), cells were harvested, washed once with PBS, and stained with 2.5 μg/mL propidium iodide (PI) for 5 min at room temperature. Subsequently, cell death was assessed by flow cytometry using a BD FACSaria II cytometer. Cells incubated only with a drug vehicle were used as a 100% viability control and death percentage was calculated according to the following formula: Death(%)=[1−(%PI^−cells)drug−treated/(%PI^−cells)100% viability control]×100.
Then the concentration capable of causing cell death in 50% of splenocytes (CC50) was determined using a non-linear regression approach.

A549 cells [2] = test: Antiproliferative SRB assay (NCI protocol), 48 h; type: cell-based, human; settings: splenocyte CC50 versus A549 GI50
WiDr cells = test: Antiproliferative SRB assay (NCI protocol), 48 h; type: cell-based, human; settings: for GI50: Homo sapiens, read-out: 50% growth inhibition (GI50) ± SD, WiDr; for Selectivity Index, WiDr: splenocyte CC50 versus WiDr GI50
Procedure: (§1) In vitro antiproliferative activity was evaluated using the protocol of the National Cancer Institute (NCI) after 48 h of drug exposure using the sulforhodamine B (SRB) assay. […] We cannot discard that increasing lipophilicity may well result in an increase in cytotoxicity in vitro.
(§2) The following human solid tumor cell lines were used in this study: HBL-100 (breast), HeLa (cervix), SW1573 (non-small cell lung), T-47D (breast), A549 (lung), and WiDr (colon). Cells were maintained in 25 cm^2 culture flasks in RPMI 1640 supplemented with 5% heat-inactivated fetal calf serum and 2 mM L-glutamine in a 37 °C, 5% CO2, 95% humidified air incubator. Exponentially growing cells were trypsinized and resuspended in antibiotic containing medium (100 units penicillin G and 0.1 mg of streptomycin per mL). Single-cell suspensions displaying >97% viability by trypan blue dye exclusion test were subsequently counted. After counting, dilutions were made to give the appropriate cell densities for inoculation onto 96-well microtiter plates. Cells were inoculated in a volume of 100 μL per well at densities of 20,000 (WiDr), 15,000 (T-47D and A549), and 10,000 (HeLa, SW1573, and HBL-100) cells per well, based on their doubling times.
(§3) Chemosensitivity tests were performed using the SRB assay of the NCI with slight modifications. Briefly, pure compounds were initially dissolved in DMSO at 400 times the desired final maximum test concentration. Control cells were exposed to an equivalent concentration of DMSO (0.25% v/v, negative control). Each agent was tested in triplicate at different dilutions in the range 1–100 μM. Drug treatment started on day 1 after plating. Drug incubation periods were 48 h, after which cells were precipitated with 25 μL of ice-cold 50% (w/v) trichloroacetic acid and fixed for 60 min at 4 °C. Then, the SRB assay was performed. Optical density (OD) of each well was measured at 492 nm, using BioTek’s PowerWave XS Absorbance Microplate Reader (Highland Park, Winooski, VT, USA). Values were corrected for background OD from wells containing only culture medium. The percentage growth (PG) was calculated with respect to untreated control cells (C) at each level of drug concentrations based on the difference in OD at the start time (T0) and at the end of drug exposure (T), according to NCI formulas. Therefore, if T is greater than or equal to T0, the calculation is 100 × [(T–T0)/(C–T0)]. If T is lower than T0, denoting cell death, the calculation is 100 × [(T–T0)/(T0)]. The effect is defined as the growth percentage, where 50% growth inhibition (GI50) represents the concentration at which PG is +50. Based on these calculations, a PG value of 0 corresponds to the number of cells present at the beginning of drug exposure, while negative PG values denote net cell death.

T47-D cells = test: Antiproliferative SRB assay (NCI protocol), 48 h; type: cell-based, human; settings: for GI50: Homo sapiens, T47D, read-out: 50% growth inhibition (GI50) ± SD, T47-D; for Selectivity Index, T47-D: splenocyte CC50 versus T47-D GI50
Procedure: as §1, §2, §3

SW1573 cells = test: Antiproliferative SRB assay (NCI protocol), 48 h; type: cell-based, human; settings: for GI50: Homo sapiens, read-out: 50% growth inhibition (GI50) ± SD, SW1573; for Selectivity Index, SW1573: splenocyte CC50 versus SW1573 GI50
Procedure: as §1, §2, §3

HBL100 cells [3] = test: Antiproliferative SRB assay (NCI protocol), 48 h; type: cell-based; settings: Homo sapiens, read-out: 50% growth inhibition (GI50) ± SD, HBL100
Procedure: as §1, §2, §3

A549 cells [4] = test: Antiproliferative SRB assay (NCI protocol), 48 h; type: cell-based; settings: Homo sapiens, read-out: 50% growth inhibition (GI50) ± SD, A549
Procedure: as §1, §2, §3

HeLa cells [5] = test: Antiproliferative SRB assay (NCI protocol), 48 h; type: cell-based; settings: Homo sapiens, read-out: 50% growth inhibition (GI50) ± SD, HeLa
Procedure: as §1, §2, §3

HBL100 cells [6] = test: Antiproliferative SRB assay (NCI protocol), 48 h; type: cell-based, human; settings: splenocyte CC50 versus HBL100 GI50
HeLa cells [7] = test: Antiproliferative SRB assay (NCI protocol), 48 h; type: cell-based, human; settings: splenocyte CC50 versus HeLa GI50
[8] = system: human solid tumor cell lines (A549, HBL-100, HeLa, SW1573, T-47D, WiDr); test: Antiproliferative SRB assay, whole panel of tumor cell lines; type: cell-based; settings: tumor cell line panel, compared to cumanin (1)
Procedure: as §1, §2, §3

[9] = WiDr (colon), SRB, 48 h drug exposure
[10] = T47-D (breast), SRB, 48 h drug exposure
[11] = SW1573 (non-small cell lung), SRB, 48 h drug exposure
[12] = HBL-100, HBL100 (breast), SRB, 48 h drug exposure
[13] = A549 (lung), SRB, 48 h drug exposure
[14] = HeLa (cervix), SRB, 48 h drug exposure
[15] = Balb/c mouse spleen cells, 48 h incubation, PI staining, read-out: CC50 ± SD, splenocytes (concentration that causes 50% cell death)

| SMILES | Selectivity Index, A549 (A549 cells [2]) | GI50 (WiDr cells; [9]) [µM] | Selectivity Index, WiDr (WiDr cells) | GI50 (T47-D cells; [10]) [µM] | Selectivity Index, T47-D (T47-D cells) | GI50 (SW1573 cells; [11]) [µM] | Selectivity Index, SW1573 (SW1573 cells) | GI50 (HBL100 cells [3]; [12]) [µM] | GI50 (A549 cells [4]; [13]) [µM] | GI50 (HeLa cells [5]; [14]) [µM] | Selectivity Index, HBL100 (HBL100 cells [6]) | Selectivity Index, HeLa (HeLa cells [7]) | also measured |
| --- | --- | --- | --- | --- | --- | --- | --- | --- | --- | --- | --- | --- | --- |
| C=C1C(=O)O[C@@H]2[C@H]1CC[C@H](C)[C@@]1(O)C=CC(=O)[C@@]21C [Compound 3, hymenin] | 0.4 | 18 | 0.2 | 20 | 0.2 | 6.4 | 0.7 | 17 | 9.7 | 14 | 0.3 | 0.3 | CC50 at 48 h ([1]; Balb/c, mouse): 4.4 µM |
| C=C1C(=O)O[C@@H]2C[C@H](C)[C@@H]3C[C@H](O[Si](c4ccccc4)(c4ccccc4)C(C)(C)C)[C@H](O)[C@@]3(C)C[C@H]12 [Compound 7] | 89.2 | 3.1 | 46.0 | 3.4 | 42.0 | 1.5 | 95.1 | 3.7 | 1.6 | 2 | 38.6 | 71.3 | – |
| C#CCOC1CC2C(C)CC3OC(=O)C(=C)C3CC2(C)C1OCC#C (centres unmarked) [Compound 9] | 5.5 | 2.1 | 44.5 | 24 | 3.9 | 20 | 4.7 | 19 | 17 | 24 | 4.9 | 3.9 | antiproliferative activity in words [8]: moderate activity |
| C=C1C(=O)O[C@@H]2C[C@H](C)[C@@H]3C[C@H](O[Si](C)(C)C)[C@H](O[Si](C)(C)C)[C@@]3(C)C[C@H]12 [Compound 5] | 27.7 | 2.2 | 30.2 | 1.9 | 34.9 | 1.8 | 36.9 | 3.6 | 2.4 | 2.9 | 18.4 | 22.9 | – |
| C=C1C(=O)OC2CC(C)C3CC(O)C(O)C3(C)CC12 (centres unmarked) [Compound 1, cumanin] | 1.5 | 36 | 0.8 | 30 | 1.0 | 14 | 2.1 | 21 | 19 | 19 | 1.4 | 1.5 | – |
| C=C1C(=O)O[C@@H]2C[C@H](C)[C@@H]3C[C@H](OC(C)=O)[C@H](OC(C)=O)[C@@]3(C)C[C@H]12 [Compound 4] | 10.0 | 27 | 8.9 | 26 | 9.3 | 11 | 21.9 | 23 | 24 | 16 | 10.5 | 15.0 | antiproliferative activity in words [8]: moderate activity |
| C=C1C(=O)OC2CC(C)C3CC(OCc4cn(Cc5ccccc5)nn4)C(OCc4cn(Cc5ccccc5)nn4)C3(C)CC12 (centres unmarked) [Compound 11] | 141.6 | 2.3 | 227.9 | 9.7 | 54.0 | 4.7 | 111.5 | 6.4 | 3.7 | 5.9 | 81.9 | 88.8 | CC50 at 48 h ([1]; primary mouse splenocytes (spleen cells), Balb/c mouse spleen cells, 48 h incubation, PI staining, read-out: CC50 ± SD, splenocytes (concentration that causes 50% cell death)): 524 µM |
| C=C1C(=O)O[C@@H]2[C@H]1CC[C@H](C)[C@@]1(O[Si](C)(C)C)C=CC(=O)[C@@]21C [Compound 15] | 0.7 | 6.8 | 0.3 | 4.2 | 0.5 | 2.4 | 0.9 | 4.6 | 3.4 | 3.3 | 0.5 | 0.7 | CC50 at 48 h ([1]; Balb/c, mouse): 2.3 µM |
| C=C1C(=O)O[C@@H]2C[C@H](C)[C@@H]3C[C@H](O[Si](C)(C)C(C)C)[C@H](O[Si](C)(C)C(C)C)[C@@]3(C)C[C@H]12 [Compound 6] | 76.5 | 2.4 | 38.2 | 2.2 | 41.7 | 1.2 | 76.5 | 2.3 | 1.2 | 1.3 | 39.9 | 70.6 | CC50 at 48 h ([1]; Balb/c, mouse): 91.8 µM |
| C=C1C(=O)O[C@@H]2C[C@@H](C)[C@@H]3C=CC(=O)[C@@]3(C)[C@@H](O)[C@H]12 [Compound 2, helenalin] | 0.5 | – | 0.4 | – | 0.4 | – | 0.5 | – | – | – | 0.4 | 0.7 | CC50 at 48 h [1, 15]: 1.2 µM; GI50 (WiDr cells; WiDr, 48 h): 2.7 µM; GI50 (T47-D cells; 48 h): 2.9 µM; GI50 (SW1573 cells; SW1573, 48 h): 2.2 µM; GI50 (HBL100 cells [3]; HBL-100, 48 h): 2.8 µM; GI50 (A549 cells [4]; A549, 48 h): 2.3 µM; GI50 (HeLa cells [5]; HeLa, 48 h): 1.7 µM |
| C=C1C(=O)O[C@@H]2C[C@@H](C)[C@@H]3C=CC(=O)[C@@]3(C)[C@@H](OC(C)=O)[C@H]12 [Compound 12] | – | – | – | 1.6 | 0.2 | 4.7 | 0.1 | 3.6 | – | – | 0.1 | – | CC50 [1, 15]: 0.4 µM |
